Reference: patent US10654834B2 (Venenum Biodesign, LLC, priority 2016, dated 2020)

What was measured:
Format in all cases: in vivo, mouse
GLP-1 [1] = assay: Plasma GLP-1 time course after a single oral dose in DIO mice; details: 30 mg/kg + sitagliptin versus sitagliptin alone, 6-24 h
Description: In this study, we evaluated if the observed GLP-1 elevation (induced by the compounds of the present invention) may be associated with gallbladder filling. We treated mice with Compound 268 and monitored the bile weight (a measure that indicated gallbladder filling) to determine if the compound retained more bile in the gallbladder as compared to the control mice (i.e., vehicle alone). A time course study was performed to measure weight of the bile aspirated from the gallbladder after oral administration of Compound 268 (30 mg/kg) in high fat diet induced obese (DIO) mice. In this study, GLP-1 levels were also measured at each time point (FIG. 9).
Approximately 12 week old DIO male mice (obtained from Taconic) were acclimated in the testing facility for over two weeks. The mice were provided a high fat diet [Research Diet D12492 (60% Fat kcal)] while in the testing facility. […] The blood samples were distributed as follows: 150-200 μL of blood were placed in an EDTA K^2+ tube containing 5 μL of 40 mg/mL aprotinin (Sigma A1153) and 1 μL of 10 mM sitagliptin (Sigma 58576) to be used for GLP-1 measurements; the remaining blood (≥250 μL) was placed in an EDTA K^2+ tube and plasma was processed for analytical chemistry and analyzed by LCMS/MS method as described in Example 81. […]

[2] = Food intake over multiple weeks of dosing in DIO mice; details: 30 mg/kg BID p.o., 6 weeks
Source text: In the next series of studies (Examples 93-99), Male DIO mice were received at 12 weeks of age (from Taconic), and were single-housed at the testing facility and acclimated for at least 2 weeks. The mice were provided a high fat diet [Research Diet D12492 (60% Fat kcal)] while in the testing facility. Before the study initiation, the animals were randomized into 5 experimental groups by body weight. The vehicle group contained only 0.5% carboxymethylcellulose (medium viscosity)+0.25% Tween-80. The second group contained 10 mg/kg of the DPP-IV inhibitor Sitagliptin while the third group contained 30 mg/kg Compound 268. The fourth group contained the combination of 10 mg/kg Sitagliptin and 30 mg/kg Compound 268. The fifth group was the positive control for weight loss, Rimonabant. All mice were dosed BID at approximately 6:00 am and again at approximately 4:00 pm. The positive control rimonabant was administered at a dose of 10 mg/kg in the afternoon and the morning dosing was vehicle (no compound). […]
Compounds of the present invention were dosed for multiple weeks and were evaluated for their ability to cause mice to have a lower food intake. […]
The HFD (Research Diets, D12492, 60% fat kcal) was placed at the bottom of the cage on a singly-housed animal. […] Daily food intake is calculated by averaging over a 3 or 4 day period every week.

[3] = Bile weight after chronic dosing (5 days) in DIO mice; details: 30 mg/kg + sitagliptin 10 mg/kg, after second and tenth treatment, versus sitagliptin alone
Description: Bile Weight after Chronic Dosing of Compounds
In this study, chronic dosing of compounds of the present invention was examined to determine if they lead to an increase in bile weight.
FIG. 13 depicts the time course of bile weight changes over time (i.e., 0, 3, 6, 9, and 12 hours) after the second and the tenth treatment with Compound 268 using the protocol in Example 87.

GLP-1 [4] = assay: GLP-1 levels after chronic dosing (5 days) in DIO mice; details: 30 mg/kg + sitagliptin 10 mg/kg p.o., after dose 2 and dose 10 (5 days), versus sitagliptin alone
Description: GLP-1 Levels after Chronic Dosing of Compounds
The chronic dosing of compounds of the present invention was evaluated to determine if they produce sustained GLP-1 levels.
Male DIO mice were received at 12 weeks of age (from Taconic), and were single-housed at the testing facility and acclimated for at least 2 weeks. The mice were provided a high fat diet [Research Diet D12492 (60% Fat kcal)] while in the testing facility. Before the study initiation, the animals were randomized into 18 experimental groups by body weight. The first 10 groups were administered with sitagliptin alone at 10 mg/kg or sitagliptin (10 mg/kg)+Compound 268 at 30 mg/kg by oral gavage and then again 14 hours later (except for one sitagliptin treated and one sitagliptin+Compound 268 treated groups that were euthanized 14° hours after the first dose). The remaining mice were euthanized at 3, 6, or 9 hours after the second dose to collect blood for GLP-1 measurements and bile weights. The remaining 8 groups were administered by oral gavage with sitagliptin alone at 10 mg/kg or sitagliptin (10 mg/kg)+Compound 268 at 30 mg/kg every 10 or 14 hours for 5 days. […] The active form of GLP-1 [GLP-1 (7-36) amide] was analyzed using Meso Scale Discovery System according to the manufacturer's instruction. […]

[5] = Body weight over 6 weeks of BID dosing in DIO mice; details: 30 mg/kg BID p.o.
Description: Monitoring of Weight Loss after Multiple Weeks of Dosing Compounds
Compounds of the present invention were dosed for multiple weeks and were evaluated for their ability to cause mice to lose weight.
In the next series of studies (Examples 93-99), Male DIO mice were received at 12 weeks of age (from Taconic), and were single-housed at the testing facility and acclimated for at least 2 weeks. The mice were provided a high fat diet [Research Diet D12492 (60% Fat kcal)] while in the testing facility. Before the study initiation, the animals were randomized into 5 experimental groups by body weight. The vehicle group contained only 0.5% carboxymethylcellulose (medium viscosity)+0.25% Tween-80. The second group contained 10 mg/kg of the DPP-IV inhibitor Sitagliptin while the third group contained 30 mg/kg Compound 268. The fourth group contained the combination of 10 mg/kg Sitagliptin and 30 mg/kg Compound 268. The fifth group was the positive control for weight loss, Rimonabant. All mice were dosed BID at approximately 6:00 am and again at approximately 4:00 pm. The positive control rimonabant was administered at a dose of 10 mg/kg in the afternoon and the morning dosing was vehicle (no compound).
Compounds of the present invention were evaluated for their ability to cause mice to lose weight. Mice were dosed compounds for 6 weeks and body weights were recorded twice a week.

bile weight after chronic dosing [3]: no significant changes in bile weight
Compound: N#Cc1ccc(CCNC(=O)[C@@H]2CCN2c2cc(N3CCC(CCNC(=O)NCCC(=O)O)CC3)nc(C(F)(F)F)n2)cc1 [Compound 268, (S)-3-(3-(2-(1-(6-(2-((4-cyanophenethyl)carbamoyl)azetidin-1-yl)-2-(trifluoromethyl)pyrimidin-4-yl)piperidin-4-yl)ethyl)ureido)propanoic acid]
plasma GLP-1 levels (GLP-1 [1]): significant elevation of GLP-1 levels
food intake [2]: minor, but steady effect on food intake
plasma GLP-1 level after chronic dosing (GLP-1 [4]): significantly increased level of GLP-1
body weight change [5]: modest weight loss
